# Source: patent US20250129103A1, “METHODS FOR TREATMENT OF CANCER” (Frontier Medicines Corporation, priority 2022, published 2025)
# pIC50: −log10 of the molar value.
# What was measured:
# [1] = Determination of kinetic solubility (pH 7.4); format: physicochemical; details: phosphate buffer, pH 7.4, aqueous buffer, kinetic from dmso stock, 50 mM phosphate buffer pH 7.4, read-out: Ksol, pH 7.4
# How it was run: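 Sample mixed with 50 mM phosphate buffer, pH 7.4, vortexed, then shaken 2 h at room temperature and centrifuged. Filtrate analysed by HPLC-UV and LC-MS/MS, with solubility read from peak areas against a standard calibration curve.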
# [2] = Determination of logD (1-octanol / phosphate buffer pH 7.4); format: physicochemical; details: 1-octanol/phosphate buffer, pH 7.4, pH 7.4, 1-octanol/phosphate buffer; read-out: Log D, pH 7.4
# How it was run: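 Shake-flask partition between 1-octanol and 100 mM phosphate buffer pH 7.4, each phase presaturated with the other overnight. Tubes shaken 1 h at 800 rpm, room temperature, then centrifuged. Both phases quantified by LCMS and logD calculated from the ratio.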
# [3] = target: KRAS G12C (GMPPNP-loaded) and cRAF (Ras-binding domain) interaction (Homo sapiens (Human), UniProt P01116, C118S/C51S/C80L/G12C); assay: Inhibition of KRAS G12C and cRAF binding (AlphaScreen); details: KRAS G12C loaded with GMPPNP, cRaf RBD, 2 hours preincubation; read-out: Raf-1 RBD K-Ras IC50
# Chain of KRAS G12C (GMPPNP-loaded) and cRAF (Ras-binding domain) interaction (P01116 other isoform, or with tags, fused parts or gaps G12C/C51S/C80L/C118S): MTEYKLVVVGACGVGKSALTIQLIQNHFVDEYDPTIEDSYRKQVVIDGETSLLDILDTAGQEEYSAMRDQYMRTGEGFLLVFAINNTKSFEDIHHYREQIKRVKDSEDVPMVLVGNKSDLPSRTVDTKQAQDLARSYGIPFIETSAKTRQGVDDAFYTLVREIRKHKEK
# How it was run: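 GMPPNP-loaded KRAS G12C in 25 mM Hepes pH 7.4, 150 mM NaCl, 5 mM MgCl2, 0.01% Triton X-100, 10 μM GMPPNP, 2% DMSO, preincubated with compound 2 h at room temperature. cRAF RBD plus AlphaScreen beads then added for 60-90 min; signal read at 570 nm.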
SMILES,solubility kinetic at 2 h [1] [µg/mL],logD [2],pIC50 [3]
N#CC[C@H]1CN(c2nc(OC[C@@]34CCCN3C[C@H](O)C4)nc3c(F)c(-c4cccc5cccc(Cl)c45)ncc23)CCN1C(=O)/C=C/CN1CCOCC1 [Compound 319],123,1.54,> 8.00
N#CC[C@H]1CN(c2nc(OCC34CCCN3CCC4)nc3c(F)c(-c4cccc5cccc(Cl)c45)ncc23)CCN1C(=O)/C=C/c1nc([C@H]2C[C@@H]2F)no1 [Compound 38],53.9,2.91,6.30 to 7.00
CO[C@H]1CCN(C/C=C/C(=O)N2CCN(c3nc(OC[C@@]45CCCN4C[C@H](F)C5)nc4c(F)c(-c5cccc(Cl)c5C(F)(F)F)ncc34)C[C@@H]2CC#N)C1 [Compound 309],141,2.79,7.00 to 8.00
C[C@H]1CN(C/C=C/C(=O)N2CCN(c3nc(OC[C@@]45CCCN4C[C@H](F)C5)nc4c(F)c(-c5cccc6cccc(F)c56)ncc34)C[C@@H]2CC#N)C[C@H](C)O1 [Compound 235],72.5,3.75,7.00 to 8.00
CN1CC[C@@H]1/C=C/C(=O)N1CCN(c2nc(OC[C@@]34CCCN3C[C@H](F)C4)nc3c(F)c(-c4cccc(Cl)c4C(F)(F)F)ncc23)C[C@@H]1CC#N [Compound 311],128,2.54,6.30 to 7.00
C[C@@H]1CN(C/C=C/C(=O)N2CCN(c3nc(OC[C@@]45CCCN4C[C@H](F)C5)nc4c(F)c(-c5cccc(Cl)c5C(F)(F)F)ncc34)C[C@@H]2CC#N)C[C@H](C)O1 [Compound 306],128,3.5,7.00 to 8.00
N#CC[C@H]1CN(c2nc(OC[C@@]34CCCN3C[C@H](F)C4)nc3c(F)c(-c4cccc5cccc(Cl)c45)ncc23)CCN1C(=O)/C=C/CN1CCS(=O)(=O)CC1 [Compound 207],29.9,2.4,6.30 to 7.00
C[C@H]1CN(C/C=C/C(=O)N2CCN(c3nc(OC[C@@]45CCCN4C[C@H](F)C5)nc4c(F)c(-c5cccc6ccc(F)c(F)c56)ncc34)C[C@@H]2CC#N)C[C@H](C)O1 [Compound 240],49.5,3.42,7.00 to 8.00
N#CC[C@H]1CN(c2nc(OC[C@@]34CCCN3C[C@H](O)C4)nc3c(F)c(-c4cccc5ccc(F)c(Cl)c45)ncc23)CCN1C(=O)/C=C/CN1CCOCC1 [Compound 321],162,1.52,> 8.00
N#CC[C@H]1CN(c2nc(OC[C@@]34CCCN3C[C@H](F)C4)nc3c(F)c(-c4cccc5cccc(Cl)c45)ncc23)CCN1C(=O)/C=C/CN1C[C@H]2CC[C@@H]1CO2 [Compound 258],169,2.81,> 8.00
Cc1c(Cl)cccc1-c1ncc2c(N3CCN(C(=O)/C=C/CN4[C@@H]5CC[C@H]4COC5)[C@@H](CC#N)C3)nc(OC[C@@]34CCCN3C[C@H](F)C4)nc2c1F [Compound 273],124,3.1,> 8.00
CC(C)(C)c1noc(/C=C/C(=O)N2CCN(c3nc(OCC45CCCN4CCC5)nc4c(F)c(-c5cccc6cccc(Cl)c56)ncc34)C[C@@H]2CC#N)n1 [Compound 33],50,3.73,6.30 to 7.00
"CC(C)(O)c1noc(/C=C/C(=O)N2CCN(c3nc(OCC45CCCN4CCC5)nc4c3CCN(c3cccc5cccc(Cl)c35)C4)C[C@@H]2CC#N)n1 [Example 16, (S,E)-2-(4-(7-(8-chloronaphthalen-1-yl)-2-((hexahydro-1H-pyrrolizin-7a-yl)methoxy)-5,6,7,8-tetrahydropyrido[3,4-d]pyrimidin-4-yl)-1-(3-(3-(2-hydroxypropan-2-yl)-1,2,4-oxadiazol-5-yl)acryloyl)piperazin-2-yl)acetonitrile]",73.1,3.04,7.00 to 8.00
Cn1cc(/C=C/C(=O)N2CCN(c3nc(OCC45CCCN4CCC5)nc4c3CCN(c3cccc5cccc(Cl)c35)C4)C[C@@H]2CC#N)nn1 [Compound 117],112,2.65,< 6.30
